#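 Where inhibition never reached the appropriate level, the endpoint shown equals the highest concentration tested. Otherwise, values were interpolated linearly from a five-concentration, 48-hour dose response in 96-well plates. GI50 is the concentration that inhibits growth by half.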 The source made the active and inactive calls. Rule as the data show it: active = GI50 up to about 1.1 µM and inactive = higher.
# Legend:
# Assay in all cases: NCI-60 cell line screen, 48 h
# [1] = test system: A498
# [2] = test system: A549
# [3] = test system: HCT-116
# [4] = test system: HL-60
# [5] = test system: HOP-62
# [6] = test system: IGROV-1
# [7] = test system: KM12
# [8] = test system: LOX IMVI
# [9] = test system: MCF7
# [10] = test system: MDA-MB-231
# [11] = test system: MDA-MB-435
# [12] = test system: MOLT-4
# [13] = test system: Malme-3M
# [14] = test system: NCI-H23
# [15] = test system: NCI/ADR-RES
# [16] = test system: OVCAR-5
# [17] = test system: OVCAR-8
# [18] = test system: SK-MEL-28
# [19] = test system: SK-MEL-5
# [20] = test system: SK-OV-3
Structure (SMILES),GI50 [1],GI50 [2],GI50 [3],GI50 [4],GI50 [5],GI50 [6],GI50 [7],GI50 [8],GI50 [9],GI50 [10],GI50 [11],GI50 [12],GI50 [13],GI50 [14],GI50 [15],GI50 [16],GI50 [17],GI50 [18],GI50 [19],GI50 [20]
Oc1ccc(NCc2cc(O)ccc2O)cc1,28.4 µM (inactive),53.1 µM (inactive),15.3 µM (inactive),3.03 µM (inactive),18.7 µM (inactive),16.4 µM (inactive),21.7 µM (inactive),17.1 µM (inactive),13.9 µM (inactive),13.2 µM (inactive),16.4 µM (inactive),3.07 µM (inactive),19.1 µM (inactive),18.1 µM (inactive),18.4 µM (inactive),18.3 µM (inactive),25.8 µM (inactive),22.3 µM (inactive),16.9 µM (inactive),17.8 µM (inactive)
COC(=O)c1c(C)cccc1C1CN=NC12Cc1ccccc1C2=O (stereo not given),98.6 µM (inactive),> 82.6 µM (inactive),46.2 µM (inactive),36.9 µM (inactive),> 100 µM (inactive),> 91.2 µM (inactive),> 78 µM (inactive),31.2 µM (inactive),2.46 µM (inactive),45.7 µM (inactive),> 82 µM (inactive),36.2 µM (inactive),> 45.1 µM (inactive),60.4 µM (inactive),35.1 µM (inactive),> 100 µM (inactive),> 100 µM (inactive),> 71.1 µM (inactive),37.4 µM (inactive),> 100 µM (inactive)
Cc1ccc(NC2=NCCO2)c2c1CCC2,41.6 µM (inactive),41.7 µM (inactive),15.3 µM (inactive),16.7 µM (inactive),27.9 µM (inactive),40 µM (inactive),30.3 µM (inactive),22.8 µM (inactive),31.8 µM (inactive),19.7 µM (inactive),20.5 µM (inactive),33.9 µM (inactive),27.8 µM (inactive),32.2 µM (inactive),20.4 µM (inactive),26 µM (inactive),35.1 µM (inactive),32.8 µM (inactive),17.5 µM (inactive),41.5 µM (inactive)
COc1ccc2[nH]c3c(C)c4ccnc(NCCCN(C)CCCNC(=O)NCCCN(C)CCCNc5nccc6c(C)c7[nH]c8ccc(OC)cc8c7c(C)c56)c4c(C)c3c2c1,1.39 µM (inactive),0.249 µM (active),0.208 µM (active),0.147 µM (active),0.419 µM (active),0.476 µM (active),1.03 µM (active),0.855 µM (active),0.164 µM (active),0.403 µM (active),0.466 µM (active),0.236 µM (active),0.569 µM (active),0.989 µM (active),2.14 µM (inactive),0.843 µM (active),0.638 µM (active),1.48 µM (inactive),0.774 µM (active),1.67 µM (inactive)
CC1OC(OC2C(CO)OC(O[C@H]3CC[C@@]4(C)C(=CC[C@H]5[C@@H]6C[C@@H]7O[C@](O)(CC[C@H](C)COC8OC(CO)C(O)C(O)C8O)[C@@H](C)[C@@H]7[C@@]6(C)CC[C@@H]54)C3)C(OC3OC(C)C(O)C(O)C3O)C2O)C(O)C(O)C1O (stereo not given in full),26.7 µM (inactive),2.35 µM (inactive),3.72 µM (inactive),4.66 µM (inactive),2.18 µM (inactive),5.75 µM (inactive),2.36 µM (inactive),2.17 µM (inactive),7.8 µM (inactive),8.55 µM (inactive),2.07 µM (inactive),2.29 µM (inactive),5.6 µM (inactive),4.29 µM (inactive),4.4 µM (inactive),10.8 µM (inactive),4.06 µM (inactive),2.94 µM (inactive),7.1 µM (inactive),2.91 µM (inactive)
